Assay results as given in patent US7135307B2, “Gamma three protease” (Merck & Co., Inc., priority 2001, dated 2006).
Where a SMILES comes first, the peptide text is derived from it. [ ]: non-standard residue; d: D form. The star is where a group is joined. Sta = CC(C)C[C@H](N)[C@@H](O)CC(=O)O; Isovaleryl = CC(C)CC(=O)*

Assays:
Assay type in all cases: biochemical
[1] = tested on: γ-secretase activity associated with presenilins 1 and 2; test: γ-secretase activity in ES-PBD18 membranes (wild-type mouse embryonic stem cells), generation of Aβ1-40 and Aβ1-42; conditions: 1 μM inhibitor, FIG. 2A, 2B
Procedure: The presence of γ3 protease activity having a pH optimum of about 6 is clearly seen. […] Again, the presence of γ3 protease activity having a pH optimum of about 6 is clearly seen. The source of γ3 protease was ES-PBD18 membranes. ES-PBD18 membranes were prepared from wild-type mouse embryonic stem cells according to the procedure of Example 11.
(§1) Another method for product detection, employing electrochemiluminescence with a capture antibody and an antibody specific for either Aβ1-40 or Aβ1-42, is described in Example 6 below.
(§2) Aβ peptides were detected using a sandwich assay employing an antibody to capture the peptide and an antibody to detect the presence of the peptide. Detection was achieved by using electrochemiluminescence (ECL) (Yang et al., 1994, Bio/Technology 12:193–194; Khorkova et al., 1998, J. Neurosci. Meth. 82:159–166) and an Origen 1.5 Analyzer (Igen Inc., Gaithersburg, Md.).
• 1. […]

[2] = tested on: γ-secretase activity associated with presenilin-1/presenilin-2; test: γ-secretase activity in HeLa S3 cell membranes, C100Flag substrate, ECL detection of Aβ
[3] = tested on: γ3 protease; test: γ3 protease activity in HeLa S3 cell membranes, C100Flag substrate, ECL detection of Aβ
Description: The source of γ3 protease was a membrane preparation from HeLa S3 cells prepared as in Example 9. The production of the γ3 protease substrate and the conditions for cleavage are described in Example 10. The procedure for determining whether the substrate had been cleaved by γ3 protease was as in Example 6.
as §2
(§3) Capture was performed using the 4G8 murine monoclonal antibody (Senetek PLC, Maryland Heights, Mo.). The 4G8 murine monoclonal antibody binds an epitope in the Aβ peptide (about amino acids 18–21 of SEQ.ID.NO.:3) that is immediately distal to the α-secretase cleavage site. The 4G8 monoclonal antibody was biotinylated with Biotin-LC-Sulfo-NHS-Ester (Igen Inc., Gaithersburg, Md.).
Detection was achieved using the G2-10 murine monoclonal antibody and the FCA3542 rabbit antibody. […]
The G2-10 and FCA3542 antibodies were ruthenylated with TAG-NHS Ester (Igen Inc., Gaithersburg, Md.). Aβ(x-40) was detected with biotinylated 4G8 and ruthenylated G2-10. Aβ(x-42) was detected with biotinylated 4G8 and ruthenylated FCA3542. […]

[4] = tested on: γ3 protease; test: Inhibition of γ3 protease production of Aβ peptides by pepstatin A, ECL detection
Description: as §1, §2, §3
Detection was achieved using the G2-10 murine monoclonal antibody and the FCA3542 rabbit antibody. The G2-10 murine monoclonal antibody (provided by K. Beyreuther, University of Heidelberg, Germany) binds the C-terminus that is exposed after γ3 protease-mediated cleavage to generate amino acid 40 of the Aβ1-40 peptide. (Ida et al., 1996, J. Biol. Chem. 271:22908–22914). The FCA3542 rabbit antibody (provided by F. Checler, IPMC du CNRS, Valbonne, France) binds the C-terminus that is exposed after γ3 protease-mediated cleavage to generate amino acid 42 of the Aβ1-42 peptide. (Barelli et al., 1997, Mol. Med. 3:695–707.)
The G2-10 and FCA3542 antibodies were ruthenylated with TAG-NHS Ester (Igen Inc., Gaithersburg, Md.). Aβ(x-40) was detected with biotinylated 4G8 and ruthenylated G2-10. Aβ(x-42) was detected with biotinylated 4G8 and ruthenylated FCA3542.

| SMILES | inhibition of γ-secretase activity associated with presenilins 1 and 2 [1] | inhibition of the activity of the γ secretase complex containing presenilin-1 or presenilin-2 ([2]; general statement) | block of γ-secretase activity ([2]; pH 7.0 (pH optimum for presenilin-1/presenilin-2 associated γ-secretase), HeLa S3 membranes, FIG. 1) | susceptibility of γ3 protease activity to inhibition ([3]; general statement) | γ-secretase-type activity remaining in the presence of inhibitor (γ3 protease) ([3]; pH 6.0 (pH optimum for γ3 protease), HeLa S3 membranes, FIG. 1) | inhibition of production of Aβ1-40 by γ3 protease ([4]; FIG. 3A) | inhibition of production of Aβ1-42 by γ3 protease ([4]; FIG. 3B) | inhibition of γ3 protease activity ([4]; general statement (aspartyl class protease)) |
| --- | --- | --- | --- | --- | --- | --- | --- | --- |
| CC(C)C[C@H](NC(=O)[C@H](Cc1ccccc1)C[C@@H](O)[C@H](Cc1ccccc1)NC(=O)OC(C)(C)C)C(=O)N[C@@H](Cc1ccccc1)C(N)=O [L-685,458, {1S-Benzyl-4-R-[1-(1S-carbamoyl-2-phenylethylcarbamoyl)-1S-3-methylbutylcarbamoyl]-2R-hydroxy-5-phenylpentyl}carbamic acid tert-butyl ester] | essentially completely inhibit | inhibited | essentially completely block | not susceptible to inhibition | significant γ-secretase activity remains | – | – | – |
| CC(C)CC(=O)N[C@H](C(=O)N[C@H](C(=O)N[C@@H](CC(C)C)[C@@H](O)CC(=O)N[C@@H](C)C(=O)N[C@@H](CC(C)C)[C@@H](O)CC(=O)O)C(C)C)C(C)C [pepstatin A] (Isovaleryl-VV[Sta]A[Sta]-OH) | – | – | – | – | – | inhibits | inhibits | inhibited |
